One data set relates to mice on a HF diet. Description: Hyperinsulinemic euglycemic clamp study in mice on a HF diet. The data set is classed as in vivo. As for the experimental part:
Clamp studies were carried out as described previously^a,b, with slight modifications. In brief, 2-3 days before the study, an infusion catheter was inserted into the right jugular vein under general anesthesia with sodium pentobarbital. Studies were performed on mice under conscious and unstressed conditions after a 6 h fast. A primed continuous infusion of insulin (Humulin R, Lilly) was given (10.0 milliunits/kg/min),and the blood glucose concentration, monitored every 5 min, was maintained at 120 mg/dl by administration of glucose (5 g of glucose per 10 ml enriched to 20% with [6,6-^2H2] glucose (Sigma)) for 120 min. Blood was sampled via tail tip bleeds at 90, 105, and 120 min for determination of the rate of glucose disappearance (Rd). Rd was calculated according to nonsteady-state equations, and endogenous glucose production (EGP) was calculated as the difference between Rd and exogenous glucose infusion rates^a,b,c.

The next data set concerns db/db mice. Description: TG content, oxidative stress and inflammation in insulin target tissues in db/db mice. In kind it is in vivo. How it is done: Mitochondrial content assays were carried out as described previously^a,b, with slight modifications. For quantification of mitochondrial content, we used mtDNAas previously described^c.
(§1) Real-time PCR was carried out according to the method described previously^a,b,c. Total RNA was prepared from cells or tissues with Trizol (Invitrogen) according to the manufacturer's instructions. We used a real-time PCR method to quantify the mRNAs^19, with slight modifications.
(§2) Skeletal muscle homogenates were extracted, and tissue triglyceride content was determined as described previously^a-c, with some modifications. To investigate whether oxidative stress was increased, we measured lipid peroxidation, a marker of oxidative injury, as represented by plasma thiobarbituric acid reactive substance (TBARS) as described previously^4. Briefly, tissue samples were homogenized in a buffer solution containing 50 mM Tris-HCl (pH 7.4) and 1.15% KCl, and then centrifuged. The supernatant was used for the assay. The levels of lipid peroxidation in tissue homogenate and plasma were measured in terms of the amount of TBARS using the LPO test (Wako Pure Chemical Industries).

For the next data set, the system named is mice fed with a HF diet. Description: Treadmill exercise endurance in mice fed a HF diet. The data set is classed as in vivo. How it is done:
The treadmill exercise test regimen was 15 m/min for 20 min. Exercise endurance was assessed by dividing 20 min by the number of times a mouse was unable to avoid electrical shocks.

A short description of data set [1]: Measurement of plasma concentrations of AdipoRon. The data set is classed as in vivo, C57BL/6 mice. Conditions: C57BL/6, mouse, C57B6 WT mice, oral 50 mg/kg, read-out: maximal concentration (Cmax) in plasma. As for the experimental part:
We measured the plasma concentrations of AdipoRon by HPLC and TSQ Quantum Ultra (ThermoFisher) in C57BL/6 mice orally administered with 50 mg of AdipoRon per kg bodyweight. For quantitative analyses, 20 μl of plasma was mixed with acetonitrile. The mixture was mixed vigorously for 30 sec and then centrifuged at 10,000 rpm for 3 min at 4° C. An aliquot of the supernatant was injected into the quantitative LC/MS system. Quantitative analyses were performed using an Accela HPLC system (ThermoFisher). The liquid chromatographic separations were carried out by using syncronis C18, 150×2.1 mm, 3 μm. Column temperature was held at 40° C. The flow rate was 0.2 ml/min. Elution solvent A was 0.1% formic acid in water and solvent B was 0.1% formic acid in methanol. The chromatographic conditions were as follows: 0-5 min 45% A/55% B; 5-6.5 min 5% A/95%B, 6.5-10 min 45%A/55%B. A typical injection volume was 3 μl. Quantitative analyses were performed using a TSQ Quantum Ultra triple-stage quadrupole mass spectrometer. Electro-spray ionization in positive ion mode (ESI+) was used for ionization and selective reaction monitoring (SRM) mode was chosen for detection. The optimized precursor ions pairs were m/z 429.251→91.057 for AdipoRon. […]

For the next data set, the system named is AMPK. Nature of the data set: AMPK phosphorylation in vivo in skeletal muscle and liver. The arrangement: species or system mice. Conditions: intravenous 50 mg/kg. As for the experimental part: Immunoblotting was carried out according to the method described previously by which the livers, muscles or white adipose tissues were freeze-clamped in liquid nitrogen in situ^b,d,e.
The procedures used for immunoprecipitation and immunoblotting have been described previously^a,f. Muscle, liver or cell lysates were incubated with 60 μl of protein G sepharose linked to antibodies against phosphotyrosine (4G10) (Merck Millipore). Beads were then washed, the resultant was boiled for 5 min in a sample buffer and the immunoprecipitates were subjected to immunoblotting. Phosphorylation and/or the protein levels of AMPKα (Cell signaling #2535, #2532), IRβ (Upstate 05-321, Santa Cruz sc-711), AKT (Cell signaling #9271, #9272), GSK3 (Cell signaling #5558, #9315) and tubulin (NeoMarkers RB-9281-PO) were determined as described^a,g,h.

In data set [2] the test system is white adipose tissue (WAT). Description: White adipose tissue (WAT): inflammation and macrophage markers in mice fed a HF diet. In kind it is in vivo. How it is done: as §1, §2
Setting [3] is: Adipor1/r2 double-knockout mice.
[4] abbreviates: WT mice on HF diet, 10 days of administration.
Where [5] appears, read: Adipor1/r2 double-knockout mice fed with a HF diet.

With `O=C(COc1ccc(C(=O)c2ccccc2)cc1)NC1CCN(Cc2ccccc2)CC1` [Compound 73, 2-(4-benzoyl-phenoxy)-N-(1-benzylpiperidin-4-yl)acetamide], the “GIR, EGP and Rd” value with mice on a HF diet (setting [3]) is reported as “None of these parameters were improved”. In the data set with mice on a HF diet (setting [4]), the “endogenous glucose production (EGP)” value is “significantly suppressed”, the “glucose disposal rate (Rd)” value was “significantly increased” and the “glucose infusion rate (GIR)” value is on record as “significantly increased”. In addition, in the data set on db/db mice, the “TG content in the liver” value is on record as “significantly reduced TG content”; the “expression levels of genes encoding pro-inflammatory cytokines in the liver” value was “reduced expression levels”; the “expression levels of genes encoding pro-inflammatory cytokines, macrophage markers, M1 macrophage markers in the WAT” value is reported as “reduced the expression levels”; the “expression of Pparα and its target genes in the liver” value is reported as “increased the expression”. Further, in the data set on db/db mice, the “expressions of Ppargc1a, Pck1 and G6pc in the liver” value is “significantly decreased expressions”; the “oxidative stress in the liver” value is recorded as “significantly reduced”. For the same compound, in the data set on db/db mice (oral), the “TG content and TBARS in skeletal muscles” value was “decreased TG content and TBARS”; the “levels of Acadm and Sod2 in skeletal muscles” value is recorded as “significantly increased”; the “levels of genes involved in mitochondrial biogenesis functions and DNA content in skeletal muscles” value is on record as “significantly increased”. The exercise endurance result with mice fed with a HF diet (setting [5]) is “but not in Adipor1/r2 double-knockout mice”. Moreover, in the data set on mice fed with a HF diet (WT mice fed with a HF diet), the exercise endurance result is reported as “significantly increased exercise endurance”. Besides, the Cmax in data set [1] was 11.8 µM. Also, the “phosphorylation of AMPK in skeletal muscle and liver” value in the data set on AMPK (setting [3]) is listed as “but not in Adipor1/r2 double-knockout mice”. For the same compound, the “phosphorylation of AMPK in skeletal muscle and liver” value in the data set with AMPK (wild-type (WT) mice) was “significantly induced phosphorylation of AMPK”. For the same compound, in data set [2] (setting [3]), the “changes of macrophage markers in the WAT” value is listed as “these changes were not observed”. Moreover, the “expression levels of genes encoding pro-inflammatory cytokines in the WAT” value in data set [2] (setting [5]) is reported as “such effect was not observed”. For the same compound, in data set [2] (WT mice fed with a HF diet), the “expression levels of genes encoding pro-inflammatory cytokines (Tnf, Il6, Ccl2) in the WAT” value is on record as “reduced the expression levels”; the “levels of macrophage markers such as TBARS and F4/80 (Emr1), M1 marker CD11c (Itgax) in the WAT” value is “reduced the levels”; the “levels of markers for alternatively activated M2 macrophages such as CD206 (Mrc1) in the WAT” value is recorded as “not affect the levels”.

The values above are taken from patent publication US20170298051A1, “ACTIVATOR OF ADIPONECTIN RECEPTOR” (THE UNIVERSITY OF TOKYO, priority 2013, published 2017).
